In patent US6737383B1, “Herbicidal oxadiazolidines” (priority 1999, dated 2004):

Columns and labels:
duck salad = experiment: Test B flood test duck salad; format: in vivo, Heteranthera limosa
Procedure, shortened: (§1)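 Read-out is a visual response score from 0 (no effect) to 10 (complete control), assigned by comparison with untreated controls. Treatment was applied at the 2-leaf stage, and plants stayed in the greenhouse for twelve to sixteen days before scoring.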

soybean = experiment: Test B pre/postemergence soybean; format: in vivo, Glycine max
Procedure, shortened: (§2)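 Test chemicals in a non-phytotoxic solvent mixture with surfactant were sprayed preemergence onto planted seeds and postemergence onto plants 2 to 18 cm tall (1- to 4-leaf stage). After twelve to sixteen days in a greenhouse, injury was visually rated against untreated controls from 0 (no effect) to 10 (complete control).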

rice = experiment: Test B flood test rice; format: in vivo, Oryza sativa
Procedure, shortened: as §1

surinam grass = experiment: Test B pre/postemergence surinam grass; format: in vivo, Brachiaria decumbens
Procedure, shortened: as §2

velvetleaf = experiment: Test B pre/postemergence velvetleaf; format: in vivo, Abutilon theophrasti
Procedure, shortened: as §2

bedstraw = experiment: Test B pre/postemergence bedstraw; format: in vivo, Galium aparine
Procedure, shortened: as §2

bamyardgrass = experiment: Test B flood test barnyardgrass; format: in vivo, Echinochloa crus-galli
Procedure, shortened: as §1

giant foxtail = experiment: Test B pre/postemergence giant foxtail; format: in vivo, Setaria faberii
Procedure, shortened: as §2

purple nutsedge = experiment: Test B pre/postemergence purple nutsedge; format: in vivo, Cyperus rotundus
Procedure, shortened: as §2

sugar beet = experiment: Test B pre/postemergence sugar beet; format: in vivo, Beta vulgaris
Procedure, shortened: as §2

smallflower flatsedge = experiment: Test B flood test smallflower flatsedge; format: in vivo, Cyperus difformis
Procedure, shortened: as §1

morningglory = experiment: Test B pre/postemergence morningglory; format: in vivo, Ipomoea hederacea
Procedure, shortened: as §2

blackgrass = experiment: Test B pre/postemergence blackgrass; format: in vivo, Alopecurus myosuroides
Procedure, shortened: as §2

rape = experiment: Test B pre/postemergence rape; format: in vivo, Brassica napus
Procedure, shortened: as §2

pigweed = experiment: Test B pre/postemergence pigweed; format: in vivo, Amaranthus retroflexus
Procedure, shortened: as §2

corn = experiment: Test B pre/postemergence corn; format: in vivo, Zea mays
Procedure, shortened: as §2

[1] = Postemergence (flood test species), Rate 125 g/ha, scale of 0 to 10 where 0 is no effect and 10 is complete control
[2] = Rate 62 g/ha, Postemergence section, flood test species, scale of 0 to 10 where 0 is no effect and 10 is complete control
[3] = Rate 250 g/ha, Postemergence (flood test), scale 0 to 10, 0 is no effect, 10 is complete control
[4] = Rate 500 g/ha, listed under Postemergence (flood test species), scale 0 to 10
[5] = Postemergence, Rate 125 g/ha, scale of 0 to 10 where 0 is no effect and 10 is complete control
[6] = Preemergence, Rate 62 g/ha, scale of 0 to 10 where 0 is no effect and 10 is complete control
[7] = Preemergence, Rate 125 g/ha, 0 is no effect, 10 is complete control
[8] = Preemergence, Rate 250 g/ha, scale 0 to 10, 0 is no effect, 10 is complete control
[9] = Preemergence, Rate 500 g/ha, scale 0 to 10 (0 no effect, 10 complete control)
[10] = Rate 62 g/ha, Postemergence, scale of 0 to 10 where 0 is no effect and 10 is complete control
[11] = Rate 250 g/ha, Postemergence, scale 0 to 10, 0 is no effect, 10 is complete control
[12] = Rate 500 g/ha, Postemergence, scale 0 to 10

CC(C)N(C(=O)n1oc(=O)n(-c2nc(Cl)sc2Cl)c1=O)c1ccc(F)cc1 [Compound 160]
0: Ducksalad plant response rating (duck salad; [1]) | Ducksalad plant response rating (duck salad; [2]) | Plant response rating, Ducksalad (duck salad; [3]) | Ducksalad plant response rating (duck salad; [4]) | Soybean plant response rating (soybean; [5]) | Soybean plant response rating (soybean; [6]) | Soybean plant response rating (0 to 10 scale) (soybean; [7]) | Soybean plant response rating (soybean; [8]) | Soybean plant response rating (soybean; [9]) | Soybean plant response rating (soybean; [10]) | Plant response rating, Soybean (soybean; [11]) | Soybean plant response rating (soybean; [12]) | Rice plant response rating (rice; [1]) | Rice plant response rating (rice; [2]) | Plant response rating, Rice (rice; [3]) | Rice plant response rating (rice; [4]) | B. signalgrass plant response rating (surinam grass; [5]) | B. signalgrass plant response rating (surinam grass; [6]) | B. signalgrass plant response rating (0 to 10 scale) (surinam grass; [7]) | B. signalgrass plant response rating (surinam grass; [8]) | B. signalgrass plant response rating (surinam grass; [9]) | B. signalgrass plant response rating (surinam grass; [10]) | Plant response rating, B. signalgrass (surinam grass; [11]) | B. signalgrass plant response rating (surinam grass; Rate 500 g/ha, Postemergence, scale 0 to 10, 0 no effect, 10 complete control) | Velvetleaf plant response rating (velvetleaf; [6]) | Velvetleaf plant response rating (0 to 10 scale) (velvetleaf; [7]) | Velvetleaf plant response rating (velvetleaf; [8]) | Velvetleaf plant response rating (velvetleaf; [9]) | Plant response rating, Velvetleaf (velvetleaf; [11]) | Velvetleaf plant response rating (velvetleaf; [12]) | Bedstraw plant response rating (bedstraw; [5]) | Bedstraw plant response rating (bedstraw; [6]) | Bedstraw plant response rating (0 to 10 scale) (bedstraw; [7]) | Bedstraw plant response rating (bedstraw; [8]) | Bedstraw plant response rating (bedstraw; [9]) | Bedstraw plant response rating (bedstraw; [10]) | Plant response rating, Bedstraw (bedstraw; [11]) | Bedstraw plant response rating (bedstraw; [12]) | Barnyardgrass plant response rating (bamyardgrass; [1]) | Barnyardgrass plant response rating (bamyardgrass; [2]) | Plant response rating, Barnyardgrass (bamyardgrass; [3]) | Barnyardgrass plant response rating (bamyardgrass; [4]) | Giant foxtail plant response rating (giant foxtail; [5]) | Giant foxtail plant response rating (giant foxtail; [6]) | Giant foxtail plant response rating (0 to 10 scale) (giant foxtail; [7]) | Giant foxtail plant response rating (giant foxtail; [8]) | Giant foxtail plant response rating (giant foxtail; [9]) | Giant foxtail plant response rating (giant foxtail; [10]) | Plant response rating, Giant foxtail (giant foxtail; [11]) | Giant foxtail plant response rating (giant foxtail; [12]) | Nutsedge plant response rating (purple nutsedge; [5]) | Nutsedge plant response rating (purple nutsedge; [6]) | Nutsedge plant response rating (0 to 10 scale) (purple nutsedge; [7]) | Nutsedge plant response rating (purple nutsedge; [8]) | Nutsedge plant response rating (purple nutsedge; [9]) | Nutsedge plant response rating (purple nutsedge; [10]) | Plant response rating, Nutsedge (purple nutsedge; [11]) | Nutsedge plant response rating (purple nutsedge; [12]) | Sugarbeets plant response rating (sugar beet; [5]) | Sugarbeets plant response rating (sugar beet; [6]) | Sugarbeets plant response rating (0 to 10 scale) (sugar beet; [7]) | Sugarbeets plant response rating (sugar beet; [8]) | Sugarbeets plant response rating (sugar beet; [9]) | Sugarbeets plant response rating (sugar beet; [10]) | Plant response rating, Sugarbeets (sugar beet; [11]) | Sugarbeets plant response rating (sugar beet; [12]) | S. Flatsedge plant response rating (smallflower flatsedge; [1]) | S. Flatsedge plant response rating (smallflower flatsedge; [2]) | Plant response rating, S. Flatsedge (smallflower flatsedge; [3]) | S. Flatsedge plant response rating (smallflower flatsedge; [4]) | Morningglory plant response rating (morningglory; [5]) | Morningglory plant response rating (morningglory; [6]) | Morningglory plant response rating (0 to 10 scale) (morningglory; [7]) | Morningglory plant response rating (morningglory; [8]) | Morningglory plant response rating (morningglory; [9]) | Morningglory plant response rating (morningglory; [10]) | Plant response rating, Morningglory (morningglory; [11]) | Morningglory plant response rating (morningglory; [12]) | Blackgrass plant response rating (blackgrass; [5]) | Blackgrass plant response rating (blackgrass; [6]) | Blackgrass plant response rating (0 to 10 scale) (blackgrass; [7]) | Blackgrass plant response rating (blackgrass; [8]) | Blackgrass plant response rating (blackgrass; [9]) | Blackgrass plant response rating (blackgrass; [10]) | Plant response rating, Blackgrass (blackgrass; [11]) | Blackgrass plant response rating (blackgrass; [12]) | Rape plant response rating (rape; [5]) | Rape plant response rating (rape; [6]) | Rape plant response rating (0 to 10 scale) (rape; [7]) | Rape plant response rating (rape; [8]) | Rape plant response rating (rape; [9]) | Rape plant response rating (rape; [10]) | Plant response rating, Rape (rape; [11]) | Rape plant response rating (rape; [12]) | Redroot pigweed plant response rating (pigweed; [5]) | Redroot pigweed plant response rating (pigweed; [6]) | Redroot pigweed plant response rating (0 to 10 scale) (pigweed; [7]) | Redroot pigweed plant response rating (pigweed; [8]) | Redroot pigweed plant response rating (pigweed; [9]) | Redroot pigweed plant response rating (pigweed; [10]) | Plant response rating, Redroot pigweed (pigweed; [11]) | Redroot pigweed plant response rating (pigweed; [12]) | Corn plant response rating (corn; [5]) | Corn plant response rating (corn; [6]) | Corn plant response rating (0 to 10 scale) (corn; [7]) | Corn plant response rating (corn; [8]) | Corn plant response rating (corn; [9]) | Corn plant response rating (corn; [10]) | Plant response rating, Corn (corn; [11]) | Corn plant response rating (corn; [12])
